Reference: patent US20140309192A1, “MODULATORS OF THE G PROTEIN-COUPLED MAS RECEPTOR AND THE TREATMENT OF DISORDERS RELATED THERETO” (ARENA PHARMACEUTICALS, INC., priority 2011, published 2014)
Like-named read-outs stand apart in the source and are kept apart here.

Columns and labels:
rat Mas receptor = target: T1, rat Mas receptor (Rattus norvegicus, UniProt P12526); assay: HTRF IP1 assay, HEK293 cells expressing rat Mas receptor; format: cell-based
T1 construct: expressed in transfected cells; host or cells: HEK293 (ATCC CRL-1573)
T1 sequence (P12526 1-324): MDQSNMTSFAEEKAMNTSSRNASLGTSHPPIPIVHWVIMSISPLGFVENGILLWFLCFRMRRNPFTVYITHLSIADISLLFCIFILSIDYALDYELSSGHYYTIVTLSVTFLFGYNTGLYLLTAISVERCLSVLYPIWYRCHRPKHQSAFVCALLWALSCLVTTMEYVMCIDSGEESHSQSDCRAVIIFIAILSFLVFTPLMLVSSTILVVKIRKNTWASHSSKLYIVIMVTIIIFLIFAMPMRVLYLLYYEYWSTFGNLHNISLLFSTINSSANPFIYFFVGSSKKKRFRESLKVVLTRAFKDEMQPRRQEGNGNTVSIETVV

human Mas receptor [1] = target: T2, human Mas receptor (Homo sapiens, UniProt P04201); assay: HTRF IP1 assay, HEK293 cells expressing human Mas receptor; format: cell-based
T2 construct: expressed in transfected cells; host or cells: HEK293 (ATCC CRL-1573)
T2 sequence (P04201 1-325): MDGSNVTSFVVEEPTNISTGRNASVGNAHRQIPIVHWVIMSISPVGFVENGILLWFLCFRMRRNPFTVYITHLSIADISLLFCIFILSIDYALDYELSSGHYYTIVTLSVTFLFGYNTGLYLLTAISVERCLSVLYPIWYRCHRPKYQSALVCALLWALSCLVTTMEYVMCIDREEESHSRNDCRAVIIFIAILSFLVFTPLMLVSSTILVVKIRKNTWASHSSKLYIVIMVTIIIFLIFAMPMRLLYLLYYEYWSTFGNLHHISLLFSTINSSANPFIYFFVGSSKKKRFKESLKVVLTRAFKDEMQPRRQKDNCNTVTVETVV

human Mas receptor [2] = target: T2, human Mas receptor; assay: cAMP Dynamic2 HTRF assay, HEK293 cells stably expressing human Mas receptor; format: cell-based
Protocol: cAMP accumulation in HEK293 cells stably expressing human or rat Mas receptors was determined by the 384 well cAMP Dynamic2 Homogenous Time-Resolved Fluorescence (HTRF®) assay (CisBio Cat#62AM4PEB) following the manufacturer's protocol. Briefly, cells were plated at 30,000 or 1000 cells per well in 5 μL stimulation buffer (PBS containing 500 μM IBMX and 0.1% bovine serum albumin), 5 μL of Mas compounds diluted in PBS were added to each well and serial diluted cAMP standards were also added to corresponding wells at this step. For detecting […] activities, 10 μM forskolin was included with the compounds for a final concentration of 5 μM at the stimulation step. Following 1 h stimulation at room temperature, d2-labeled cAMP and anti-cAMP cryptate conjugate diluted in detection buffer (included in the kit) were added to cells sequentially at 5 μl per well. The plates were incubated further for 1 h at room temperature. Ratiometic measurements of fluorescence emission at 665 nm and 620 nm were obtained by Pherastar fluorometer (BMG Labtech) and cAMP levels in each well were calculated according to the standard curves on each plate. IC50 values were obtained by fitting data to a nonlinear curve-fitting program (GraphPad Software, Inc., La Jolla Calif.).

Male Sprague-Dawley rats = assay: Left kidney artery ischemia reperfusion injury model; format: in vivo, rat
Protocol: Rats were anesthetized with pentobarbital (70 mg/kg). Normal body temperature was maintained by placing the animals on heating pads until recovery from anesthesia. Following a midline abdominal incision, the left renal pedicle was localized and the renal artery and vein were dissected. An atraumatic microvascular clamp was placed, and the left renal artery was occluded for 45 minutes. After inspection for signs of ischemia, the wound was covered with PBS soaked cotton. After release of the clamp, restoration of blood-flow was inspected visually and the wound was closed with surgical staples and the animal was allowed to recover. 24 hours following the end of ischemia blood was collected and markers of kidney function, creatinine and blood urea nitrogen (BUN) were measured.
15 minutes prior to renal artery occlusion either vehicle (20% hydroxypropyl-β-cyclodextrin) or a loading dose of 6.26 mg/kg Mas inverse agonist (Compound 170) was administered i.v. followed by a i.v. maintenance dose of 1.64 mg/kg/hr lasting for 2 hours following removal of the renal artery clamp. A renoprotective positive control peptide, Atrial natriuretic peptide (ANP, 0.2 μg/kg/min), was administered by continuous i.v. infusion starting 15 minutes prior to renal artery occlusion and lasting for 2 hours following removal of the renal artery clamp, see FIG. 43 for protocol.

[3] = 6.26 mg/kg loading + 1.64 mg/kg/hr i.v., 45 minutes occlusion, blood 24 hours after ischemia

SMILES	IC50 (rat Mas receptor; IP assay, HEK293 cells stably expressing rat Mas, 4 h, means ± SEM, read-out: Rat IC50) [nM]	ligand activity in IP assay, rat Mas (rat Mas receptor; Table C, line under Rat IC50)	IC50 (human Mas receptor [1]; IP assay, HEK293 cells stably expressing human Mas, 4 h, means ± SEM, read-out: Human IC50) [nM]	ligand activity in IP assay, human Mas (human Mas receptor [1]; Table C, line under Human IC50)	IC50 (human Mas receptor [2]; cAMP assay with forskolin, read-out: Gi coupling IC50) [nM]	forskolin stimulated cAMP levels (Mas-Gi activity) (human Mas receptor [2]; cells stably expressing human or rat Mas receptor, 5 μM forskolin)	IC50 (rat Mas receptor; HTRF IP1 assay, rat Mas receptor (Table B.1), read-out: IC50) [nM]	IC50 (human Mas receptor [1]; HTRF IP1 assay, human Mas receptor (Table B.2), read-out: IC50) [nM]	kidney function as measured by blood creatinine (Male Sprague-Dawley rats; [3])	kidney function as measured by blood urea nitrogen (BUN) (Male Sprague-Dawley rats; [3])	degree of renal protection (Male Sprague-Dawley rats; compared with ANP 0.2 μg/kg/min)
COc1cc([N+](=O)[O-])ccc1S(=O)(=O)N1CC(CN2CCN(c3ccccn3)CC2)C(c2cccc(F)c2)C1 (centres unmarked) [AR234960]	172 ± 9	(agonist)	351 ± 55	(agonist)	719 ± 12	dose dependent reduction					
NC(=O)[C@H](CO)NCc1ccc(C(=O)Nc2ccc(Cl)cc2N2CCN(CCC(F)(F)F)CC2)c(F)c1F [Compound 170, (S)-4-((1-Amino-3-hydroxy-1-oxopropan-2-ylamino)methyl)-N-(4-chloro-2-(4-(3,3,3-trifluoropropyl)piperazin-1-yl)phenyl)-2,3-difluorobenzamide]							21.4	15.6	improves kidney function	improves kidney function	at the same activity compared to ANP
